Data on six compounds can be found in article PMC4418176 (Bioorganic & medicinal chemistry letters, 2009).

One assay deals with NTR1 (Homo sapiens, UniProt P30989). Nature of the assay: NTR1 agonist-mediated calcium mobilization assay. As to conditions: for NTR1 specificity of the observed calcium release (block by NTR1 antagonist 1a): cells pre-incubated with 1 or 10 mM 1a for 15 min at 37 °C, test compound at its EC50, data not shown. The class given is cell-based. (Calcium assays in cells follow changes in intracellular calcium, usually with a dye or a luminescent sensor.)
NTR1, sequence (P30989 whole entry, species assumed): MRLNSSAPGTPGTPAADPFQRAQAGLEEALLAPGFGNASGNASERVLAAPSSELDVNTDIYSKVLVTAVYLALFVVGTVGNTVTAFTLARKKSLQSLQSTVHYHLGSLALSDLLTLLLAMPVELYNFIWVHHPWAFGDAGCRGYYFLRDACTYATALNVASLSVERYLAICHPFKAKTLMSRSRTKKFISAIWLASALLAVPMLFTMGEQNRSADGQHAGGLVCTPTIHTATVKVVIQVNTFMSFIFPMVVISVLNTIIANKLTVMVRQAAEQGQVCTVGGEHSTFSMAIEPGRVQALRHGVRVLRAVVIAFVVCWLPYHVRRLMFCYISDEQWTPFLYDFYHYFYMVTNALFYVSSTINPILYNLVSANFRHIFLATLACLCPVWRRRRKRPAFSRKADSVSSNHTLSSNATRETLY

For a further assay, the system named is NTR1 receptor. To be noted: calcium release (FLIPR) assay; cited from earlier work.

For the compound `COc1cccc(OC)c1-c1cc(C(=O)N[C@H](C(=O)O)C2CCCCC2)nn1-c1ccnc2cc(Cl)ccc12` [Compound 1b, reference compound], the “Screen (10 μM), percent stimulation relative to NT” value at NTR1 (10 μM, in triplicate, CHO-K1 cells stably expressing NTR1, NA = not active) is “did not stimulate calcium release”.

For the compound `COc1cccc(OC)c1-c1cc(C(=O)N[C@@H](CC(C)C)C(=O)O)nn1-c1ccnc2cc(Cl)ccc12` [Compound 3a], at NTR1, the “NTR1 specificity of the observed calcium release (block by NTR1 antagonist 1a)” value is “demonstrated by blocking with the NTR1 antagonist (1a)”. Besides, the Emax on NTR1 (± SEM, relative to neurotensin) was 51 %NT. Turning to `COc1cccc(OC)c1-c1cc(C(=O)N[C@H](CC(C)C)C(=O)O)nn1-c1ccnc2cc(Cl)ccc12` [Compound 3b], the “NTR1 specificity of the observed calcium release (block by NTR1 antagonist 1a)” value on NTR1 is reported as “demonstrated by blocking with the NTR1 antagonist (1a)”. Turning to `COc1cccc(OC)c1-c1cc(C(=O)N[C@@H](CC(C)C)C(=O)O)nn1-c1cccc2ccccc12` [Compound 5], on NTR1, the “agonist activity when screened” value is “no agonist activity”.

On to `CC(C)CC(NC(=O)OCC1c2ccccc2-c2ccccc21)C(=O)O` (stereo not shown) [Compound 6], for which the “NTR1 receptor partial agonist activity” value in the assay on NTR1 receptor is recorded as “partial agonist activity”. As for `CC(C)C[C@H](NC(=O)Cn1ccc2cc(NS(=O)(=O)c3cccc4cccnc34)ccc21)C(=O)O` [Compound 7], the “NTR1 receptor partial agonist activity” value with NTR1 receptor was “partial agonist activity”.
